Numbers after ± are expanded uncertainties.
Key:
[1] = 101.33 kPa, Liquid; for viscosity: Concentric cylinders viscometry; for mass density: Vibrating tube method
[2] = refractive index (Na D-line) (dimensionless); settings: 101.33 kPa, Liquid, Standard Abbe refractometry
[3] = wn = mass fraction of the nth substance listed; settings: 101.33 kPa, Liquid, w2 = 0; for viscosity: Concentric cylinders viscometry; for mass density: Vibrating tube method
[4] = refractive index (Na D-line) (dimensionless); wn = mass fraction of the nth substance listed; settings: 101.33 kPa, Liquid, Standard Abbe refractometry, w2 = 0

CC(O)CO (stereo unspecified) [1,2-propanediol]
Settings | mass density, [1] [kg/m3] | refractive index, [2] | viscosity, [1] [mPa·s]
253.15 K | 1065.8 ± 8 | – | 1772.4 ± 540
258.15 K | 1062.2 ± 8 | – | 1038.3 ± 310
263.15 K | 1058.6 ± 8 | – | 631.08 ± 190
268.15 K | 1054.9 ± 8 | – | 396.99 ± 120
273.15 K | 1051.3 ± 8 | – | 258 ± 78
278.15 K | – | 1.438 ± 0.001 | –
283.15 K | 1042.9 ± 8 | 1.4364 ± 0.001 | 116.68 ± 35
288.15 K | – | 1.4348 ± 0.001 | –
293.15 K | 1035.5 ± 8 | 1.4332 ± 0.001 | 59.75 ± 18
298.15 K | – | 1.4315 ± 0.001 | –
303.15 K | 1028.1 ± 8 | 1.4299 ± 0.001 | 33.26 ± 10
308.15 K | – | 1.4281 ± 0.001 | –
313.15 K | 1020.6 ± 8 | 1.4264 ± 0.001 | 19.92 ± 6
318.15 K | – | 1.4247 ± 0.001 | –
323.15 K | 1013 ± 8 | – | 12.68 ± 3.8
333.15 K | 1005.3 ± 8 | – | 8.498 ± 2.5
343.15 K | 997.7 ± 8 | – | 5.95 ± 1.8
353.15 K | 989.5 ± 8 | – | 4.332 ± 1.3

OCCCO [propan-1,3-diol]
Settings | mass density, [1] [kg/m3] | refractive index, [2] | viscosity, [1] [mPa·s]
253.15 K | 1078.2 ± 8 | – | 574.39 ± 170
258.15 K | 1075.4 ± 8 | – | 409.88 ± 120
263.15 K | 1072.3 ± 8 | – | 289.5 ± 87
268.15 K | 1069 ± 8 | – | 207.88 ± 62
273.15 K | 1065.9 ± 8 | – | 152.75 ± 46
278.15 K | – | 1.4436 ± 0.001 | –
283.15 K | 1059.8 ± 8 | 1.4423 ± 0.001 | 86.48 ± 26
288.15 K | – | 1.4409 ± 0.001 | –
293.15 K | 1053.6 ± 8 | 1.4395 ± 0.001 | 52.01 ± 16
298.15 K | – | 1.4381 ± 0.001 | –
303.15 K | 1047.4 ± 8 | 1.4368 ± 0.001 | 32.92 ± 9.9
308.15 K | – | 1.4354 ± 0.001 | –
313.15 K | 1041.1 ± 8 | 1.434 ± 0.001 | 21.79 ± 6.5
318.15 K | – | 1.4325 ± 0.001 | –
323.15 K | 1034.8 ± 8 | – | 15 ± 4.5
333.15 K | 1028.4 ± 8 | – | 10.72 ± 3.2
343.15 K | 1021.9 ± 8 | – | 7.855 ± 2.4
353.15 K | 1015.3 ± 8 | – | 5.916 ± 1.8

O [water]
Settings | mass density, [1] [kg/m3] | refractive index, [2] | viscosity, [1] [mPa·s]
273.15 K | 1000.8 ± 8 | – | 1.825 ± 0.55
278.15 K | – | 1.3341 ± 0.001 | –
283.15 K | 1000.6 ± 8 | 1.3338 ± 0.001 | 1.345 ± 0.4
288.15 K | – | 1.3335 ± 0.001 | –
293.15 K | 999.3 ± 8 | 1.3331 ± 0.001 | 1.041 ± 0.31
298.15 K | – | 1.3326 ± 0.001 | –
303.15 K | 996.8 ± 8 | 1.332 ± 0.001 | 0.8467 ± 0.25
308.15 K | – | 1.3313 ± 0.001 | –
313.15 K | 993.2 ± 8 | 1.3306 ± 0.001 | 0.6997 ± 0.21
318.15 K | – | 1.3298 ± 0.001 | –
323.15 K | 989 ± 8 | – | 0.5967 ± 0.18
333.15 K | 984.4 ± 8 | – | 0.5091 ± 0.15
343.15 K | 978.6 ± 8 | – | 0.4355 ± 0.13
353.15 K | 972.7 ± 8 | – | 0.3911 ± 0.12

O [water] + CC(O)CO
Settings | mass density, [3] [kg/m3] | refractive index, [4] | viscosity, [3] [mPa·s]
273.15 K | 1000.8 ± 8 | – | 1.825 ± 0.55
278.15 K | – | 1.3341 ± 0.001 | –
283.15 K | 1000.6 ± 8 | 1.3338 ± 0.001 | 1.345 ± 0.4
288.15 K | – | 1.3335 ± 0.001 | –
293.15 K | 999.3 ± 8 | 1.3331 ± 0.001 | 1.041 ± 0.31
298.15 K | – | 1.3326 ± 0.001 | –
303.15 K | 996.8 ± 8 | 1.332 ± 0.001 | 0.8467 ± 0.25
308.15 K | – | 1.3313 ± 0.001 | –
313.15 K | 993.2 ± 8 | 1.3306 ± 0.001 | 0.6997 ± 0.21
318.15 K | – | 1.3298 ± 0.001 | –
323.15 K | 989 ± 8 | – | 0.5967 ± 0.18
333.15 K | 984.4 ± 8 | – | 0.5091 ± 0.15
343.15 K | 978.6 ± 8 | – | 0.4355 ± 0.13
353.15 K | 972.7 ± 8 | – | 0.3911 ± 0.12

O [water] + OCCCO
Settings | mass density, [3] [kg/m3] | refractive index, [4] | viscosity, [3] [mPa·s]
273.15 K | 1000.8 ± 8 | – | 1.825 ± 0.55
278.15 K | – | 1.3341 ± 0.001 | –
283.15 K | 1000.6 ± 8 | 1.3338 ± 0.001 | 1.345 ± 0.4
288.15 K | – | 1.3335 ± 0.001 | –
293.15 K | 999.3 ± 8 | 1.3331 ± 0.001 | 1.041 ± 0.31
298.15 K | – | 1.3326 ± 0.001 | –
303.15 K | 996.8 ± 8 | 1.332 ± 0.001 | 0.8467 ± 0.25
308.15 K | – | 1.3313 ± 0.001 | –
313.15 K | 993.2 ± 8 | 1.3306 ± 0.001 | 0.6997 ± 0.21
318.15 K | – | 1.3298 ± 0.001 | –
323.15 K | 989 ± 8 | – | 0.5967 ± 0.18
333.15 K | 984.4 ± 8 | – | 0.5091 ± 0.15
343.15 K | 978.6 ± 8 | – | 0.4355 ± 0.13
353.15 K | 972.7 ± 8 | – | 0.3911 ± 0.12
